Test results taken from PubChem BioAssay AID248 (DTP/NCI, 2004).
Values joined by “and” are separate entries in the source; they are usually repeats but may differ in a detail not shown here. Identical values can stand only once. Inconclusive results and toxic doses are left out. No stated cut-off is given here; in the data, active means T/C of 150% or more; inactive means T/C below 125%.

Test system: L1210 leukemia ip in BDF1 mice, survival T/C
Assay: NCI In Vivo Anticancer Drug Screen. Data for tumor model L1210 Leukemia (intraperitoneal) in B6D2F1 (BDF1) mice
Conditions: endpoint: mean survival time, higher = longer survival
In short: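 Read-out is survival time, reported as the treated-group measurement over the vehicle-control measurement.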

[1] = dose: 100.0 mg/kg/injection, schedule: Q01DX001 (ip), vehicle: saline
[2] = dose: 200.0 mg/kg/injection, schedule: Q01DX001 (ip), vehicle: saline
[3] = dose: 400.0 mg/kg/injection, schedule: Q01DX001 (ip), vehicle: saline
[4] = dose: 100.0 mg/kg/injection, schedule: Q01DX001 (ip), vehicle: Klucel (hydroxypropylcellulose) (HPC)
[5] = dose: 200.0 mg/kg/injection, schedule: Q01DX001 (ip), vehicle: Klucel (hydroxypropylcellulose) (HPC)

Measured: T/C

CN(C)CCc1ccccc1OC1CCCC1
inactive: dose: 75.0 mg/kg/injection, schedule: Q01DX001 (ip), vehicle: other 101 % of control | dose: 150.0 mg/kg/injection, schedule: Q01DX001 (ip), vehicle: other 102 % of control | dose: 300.0 mg/kg/injection, schedule: Q01DX001 (ip), vehicle: other 101 % of control

C[P+]1(c2ccccc2)C2C=CC=CC1C=C2 (stereo not given)
inactive: dose: 5.0 mg/kg/injection, schedule: Q01DX001 (ip), vehicle: carboxymethylcellulose (CMC) 100 % of control | dose: 10.0 mg/kg/injection, schedule: Q01DX001 (ip), vehicle: carboxymethylcellulose (CMC) 92 % of control | dose: 20.0 mg/kg/injection, schedule: Q01DX001 (ip), vehicle: carboxymethylcellulose (CMC) 97 % of control

CCOC(=O)CSc1ccc2c3c(cccc13)C(=O)OC2=O
inactive: dose: 20.0 mg/kg/injection, schedule: Q01DX009 (ip), vehicle: other 104 % of control | dose: 40.0 mg/kg/injection, schedule: Q01DX009 (ip), vehicle: other 98 % of control | dose: 80.0 mg/kg/injection, schedule: Q01DX009 (ip), vehicle: other 91 % of control | dose: 87.5 mg/kg/injection, schedule: Q01DX009 (ip), vehicle: other 92 % of control

CCOC(=O)C1CN(C)C(=O)C1=O (stereo not given)
inactive: dose: 50.0 mg/kg/injection, schedule: Q01DX001 (ip), vehicle: saline 100 % of control | [1] 93 % of control | [2] 87 % of control | [3] 114 % of control

C=C1CC2CC(C)CCC2OC1=O (stereo not given)
inactive: [1] 102 % of control | [2] 98 % of control | [3] 98 % of control

O=P(OCc1ccccc1)(N(CCCl)CCCl)N1CCCC1 (stereo not given)
inactive: dose: 16.0 mg/kg/injection, schedule: Q01DX Z (ip), vehicle: saline 92 % of control | dose: 32.0 mg/kg/injection, schedule: Q01DX Z (ip), vehicle: saline 90 % of control | dose: 64.0 mg/kg/injection, schedule: Q01DX Z (ip), vehicle: saline 101 % of control | dose: 128.0 mg/kg/injection, schedule: Q01DX Z (ip), vehicle: saline 106 % of control

CCS(=O)(=O)c1ccc(NC(=O)OC(C)(c2ccccc2)C2CCCCC2)cc1 (stereo not given)
inactive: dose: 100.0 mg/kg/injection, schedule: Q01DX001 (ip), vehicle: carboxymethylcellulose (CMC) 96 % of control | dose: 200.0 mg/kg/injection, schedule: Q01DX001 (ip), vehicle: carboxymethylcellulose (CMC) 91 % of control | dose: 400.0 mg/kg/injection, schedule: Q01DX001 (ip), vehicle: carboxymethylcellulose (CMC) 100 % of control

CC1OC(c2ccccc2)OC2COC(c3ccccc3)OC12 (stereo not given)
inactive: dose: 100.0 mg/kg/injection, schedule: Q04DX003 (ip), vehicle: saline with Tween-80 102 % of control | dose: 200.0 mg/kg/injection, schedule: Q04DX003 (ip), vehicle: saline with Tween-80 96 % of control | dose: 400.0 mg/kg/injection, schedule: Q04DX003 (ip), vehicle: saline with Tween-80 96 % of control

O=[N+]([O-])c1ccc(NCc2ccccc2)c2c1no[n+]2[O-]
inactive: dose: 37.5 mg/kg/injection, schedule: Q04DX003 (ip), vehicle: saline with Tween-80 100 % of control | dose: 75.0 mg/kg/injection, schedule: Q04DX003 (ip), vehicle: saline with Tween-80 106 % of control | dose: 150.0 mg/kg/injection, schedule: Q04DX003 (ip), vehicle: saline with Tween-80 100 % of control

N#Cc1cc(C(N)=O)c(N)nc1SCc1ccccc1
inactive: dose: 50.0 mg/kg/injection, schedule: Q01DX001 (ip), vehicle: Klucel (hydroxypropylcellulose) (HPC) 94 % of control | [4] 86 % of control | [5] 91 % of control

COc1ccccc1C(O)c1cnc(C)n1Cc1ccccc1 (stereo not given)
inactive: [4] 113 % of control | dose: 100.0 mg/kg/injection, schedule: Q01DX009 (ip), vehicle: Klucel (hydroxypropylcellulose) (HPC) 96 % of control and 97 % of control | dose: 100.0 mg/kg/injection, schedule: Q04DX002 (ip), vehicle: Klucel (hydroxypropylcellulose) (HPC) 96 % of control and 98 % of control | dose: 100.0 mg/kg/injection, schedule: Q04DX003 (ip), vehicle: Klucel (hydroxypropylcellulose) (HPC) 92 % of control | [5] 100 % of control | dose: 200.0 mg/kg/injection, schedule: Q01DX009 (ip), vehicle: Klucel (hydroxypropylcellulose) (HPC) 96 % of control and 103 % of control | dose: 200.0 mg/kg/injection, schedule: Q04DX002 (ip), vehicle: Klucel (hydroxypropylcellulose) (HPC) 98 % of control and 92 % of control | dose: 200.0 mg/kg/injection, schedule: Q04DX003 (ip), vehicle: Klucel (hydroxypropylcellulose) (HPC) 92 % of control | dose: 400.0 mg/kg/injection, schedule: Q01DX001 (ip), vehicle: Klucel (hydroxypropylcellulose) (HPC) 95 % of control | dose: 400.0 mg/kg/injection, schedule: Q01DX009 (ip), vehicle: Klucel (hydroxypropylcellulose) (HPC) 93 % of control and 97 % of control | dose: 400.0 mg/kg/injection, schedule: Q04DX002 (ip), vehicle: Klucel (hydroxypropylcellulose) (HPC) 95 % of control and 92 % of control | dose: 400.0 mg/kg/injection, schedule: Q04DX003 (ip), vehicle: Klucel (hydroxypropylcellulose) (HPC) 95 % of control
